Patent US20180237774A1, “METHODS OF SCREENING FOR RIBOSWITCHES AND ATTENUATORS” (priority 2015, published 2018)
≈ marks a conversion by molar mass, not a printed value. Positions of bridges follow the written chain, without caps; N, C: chain ends. Non-standard residues stand in square brackets, D forms with d. Residues, ends and D or L forms follow the SMILES beside them. *: point of attachment. Ileψ(thiazoline)Cys = CC[C@H](C)[C@H](N)C1=N[C@H](C(=O)*)CS1; dOrn = NCCC[C@@H](N)C(=O)O

Columns and labels:
E. faecalis = experiment: Sublethal antibiotic concentration determination (growth-rate monitoring); assay type: cell-based, Enterococcus faecalis ATCC 29212; conditions: for Sublethal concentration (highest antibiotics concentration that did not cause growth-rate inhibition): Table 2; for Sublethal concentrations of antibiotics used in this study: Table 6
Experimental: (§1) A sublethal concentration for the antibiotics lincomycin, erythromycin, chloramphenicol, kanamycin, ofloxacin, ampicilin and bacitracin (Sigma) was determined for each of the organisms used in this study as follows. Bacterial cultures were propagated in LB or BHI O.N. in triplicates and diluted 1:200 into fresh media. Cultures were grown to early exponential phase (OD600=0.1-0.2) and then supplemented with serially diluted antibiotics stocks. The growth rate was dynamically monitored in intervals of 10-15 min using a 96 well plate format OD reader (Infinite M200 Tecan) for a period of at least 4 hours. […] To identify antibiotic-responsive regulators, bacteria were grown in LB or BHI in triplicates as described above and, upon reaching early exponential phase, 5 ml cultures were independently exposed for 15 minutes to the sublethal concentration of each antibiotic as determined above. Bacteria were then collected by centrifugation, flash frozen and stored in −80° C. until RNA extraction.

L. monocytogenes = experiment: as above; assay type: cell-based, Listeria monocytogenes EGDe; conditions: for Sublethal concentration (highest antibiotics concentration that did not cause growth-rate inhibition): Table 2; for Sublethal concentrations of antibiotics used in this study: Table 6
Experimental: as §1

[1] = system: lmo1652 regulatory element (rli59); experiment: Antibiotic-dependent transcriptional readthrough by term-seq and RNA-seq; assay type: cell-based, L. monocytogenes
Experimental: as §1
(§2) Term-seq average coverage across triplicates was calculated for the premature termination site and the full length gene termination site with a span of 10 nt surrounding each terminator, and the fraction of full length (gene) terminations out of all termination events was used to as a measure of the transcriptional readthrough (FIG. 3A). In cases where the regulator controlled the transcription of a multi-gene operon, which contained internal TSSs in addition to the primary one, RNA-seq was used to determine readthrough in the first gene (FIGS. 4C and 4F). RNA-seq coverage was used to measure the median read coverage over either the regulatory element or the gene, and the ratio between the two (gene-coverage divided by regulator-coverage) was used as an estimate for the short/long transcript ratio generated by regulator activity (FIG. 3A).

B. subtilis = experiment: Sublethal antibiotic concentration determination (growth-rate monitoring); assay type: cell-based, Bacillus subtilis str. 168; conditions: for Sublethal concentration (highest antibiotics concentration that did not cause growth-rate inhibition): Table 2; for Sublethal concentrations of antibiotics used in this study: Table 6
Experimental: as §1

L. monocytogenes Wt = experiment: Minimal inhibitory concentration (MIC) determination in broth; assay type: cell-based; conditions: Listeria monocytogenes, 48 h, BHI, two days at 37° C.
Experimental: (§3) The MIC was determined in broth culturing conditions in the presence of serially diluted antibiotic concentrations. Briefly, the bacterial strains were grown O.N. at 37° C. in BHI agarose plates and 1-3 single colonies were collected into 1 ml of BHI broth. The OD600 was adjusted to 0.01 and then diluted 1:10 into a 96-well plate containing a final volume of 200 μl BHI supplemented with two-fold serial dilutions of lincomycin, erythromycin and chloramphenicol.

[2] = system: L. monocytogenes Δlmo0919; experiment: as above; assay type: cell-based, Listeria monocytogenes; conditions: for MIC: Listeria monocytogenes, 48 h
Excerpt: For mutant generation with pMAD-based plasmids^59, ˜600 nt regions of complementarity both upstream and downstream of a targeted region were either ordered as gBlocks (IDT) and amplified with gBlock-Up and Down oligonucleotides (Table 1) complimentary to uniform flanks on each gBlock corresponding to the 40 nts on either side of the pMAD multi-cloning site, or PCR amplified with Phusion High fidelity polymerase and reagents (Finnzymes, F-553) using genomic DNA as a template and then joined by a second splice overlap extension PCR reaction using the first two PCR products as template to generate a Upstream-Downstream (UD) PCR product (Table 1, lmo0919 deletion). PCR products were subsequently purified with QIAquick PCR purification columns (Qiagen, 28104), digested with the SalI and XmaI restriction enzymes (NEB), purified again as before, and ligated into SalI/XmaI digested pMAD plasmid for 1 hr at 25° C. with T4 DNA ligase (NEB, M0202S). 2 μl of each ligation were transformed into chemically competent E. coli Top10 (Invitrogen, C404003) cells according to the manufacturer's instructions. Transformants were screened by PCR and Sanger sequencing for the presence of the appropriate insert. Electrocompetent L. monocytogenes strains were transformed with the respective plasmid and mutagenesis carried out as described previously^59. Briefly, after transformation and plating onto selective BHI, 5 ug/ml erythromycin (Em) 80 ug/ml 5-bromo-4-chloro-3-indolyl-β-D-galactopyranoside (X-gal) plates, bacteria were grown at 30° C. for two days. A single blue colony was picked and transferred to liquid BHI broth and grown for an additional 6 hrs at 30° C. The colony was then diluted 1:1000 into 10 ml of BHI-Em and grown O.N. at 42° C., which prevents pMAD replication in the cytosol owing to a temperature sensitive ori. […]
The MIC was determined in broth culturing conditions in the presence of serially diluted antibiotic concentrations. […]

[3] = system: msrC (EF1413) termination-based regulator; experiment: Antibiotic-dependent transcriptional readthrough by term-seq and RNA-seq; assay type: cell-based, E. faecalis; conditions: upon exposure to the antibiotic
Experimental: as §1
(§4) Term-seq average coverage across triplicates was calculated for the premature termination site and the full length gene termination site with a span of 10 nt surrounding each terminator, and the fraction of full length (gene) terminations out of all termination events was used to as a measure of the transcriptional readthrough (FIG. 3A). […]

[4] = system: L. monocytogenes uORF ATG > ACG; experiment: Minimal inhibitory concentration (MIC) determination in broth; assay type: cell-based; conditions: Listeria monocytogenes, 48 h
Excerpt: (§5) For mutant generation with pMAD-based plasmids^59, ˜600 nt regions of complementarity both upstream and downstream of a targeted region were either ordered as gBlocks (IDT) and amplified with gBlock-Up and Down oligonucleotides (Table 1) complimentary to uniform flanks on each gBlock corresponding to the 40 nts on either side of the pMAD multi-cloning site, or PCR amplified with Phusion High fidelity polymerase and reagents (Finnzymes, F-553) using genomic DNA as a template and then joined by a second splice overlap extension PCR reaction using the first two PCR products as template to generate a Upstream-Downstream (UD) PCR product (Table 1, lmo0919 deletion). PCR products were subsequently purified with QIAquick PCR purification columns (Qiagen, 28104), digested with the SalI and XmaI restriction enzymes (NEB), purified again as before, and ligated into SalI/XmaI digested pMAD plasmid for 1 hr at 25° C. with T4 DNA ligase (NEB, M0202S). 2 μl of each ligation were transformed into chemically competent E. coli Top10 (Invitrogen, C404003) cells according to the manufacturer's instructions. Transformants were screened by PCR and Sanger sequencing for the presence of the appropriate insert. Electrocompetent L. monocytogenes strains were transformed with the respective plasmid and mutagenesis carried out as described previously^59. Briefly, after transformation and plating onto selective BHI, 5 ug/ml erythromycin (Em) 80 ug/ml 5-bromo-4-chloro-3-indolyl-β-D-galactopyranoside (X-gal) plates, bacteria were grown at 30° C. for two days. A single blue colony was picked and transferred to liquid BHI broth and grown for an additional 6 hrs at 30° C. The colony was then diluted 1:1000 into 10 ml of BHI-Em and grown O.N. at 42° C., which prevents pMAD replication in the cytosol owing to a temperature sensitive ori. Serial dilutions were plated onto BHI-X-gal-Em plates and grown for two days at 42° C., and the process was reiterated several times until white colonies, in which the plasmid integrated into the genome, were recovered. Colonies were screened by colony PCR, and mutants were confirmed by Sanger sequencing.
as §3

[5] = system: L. monocytogenes ΔAnti-anti-terminator; experiment: as above; assay type: cell-based; conditions: Listeria monocytogenes, 48 h
Excerpt: as §5, §3

[6] = system: L. monocytogenes ΔAnti-terminator; experiment: as above; assay type: cell-based; conditions: Listeria monocytogenes, 48 h
Excerpt: as §5, §3

[7] = system: lmo0919 5′UTR regulator (rli53); experiment: Antibiotic-dependent transcriptional readthrough by term-seq and RNA-seq; assay type: cell-based, L. monocytogenes; conditions: 15 minutes exposure to sublethal concentration
Experimental: as §1, §2

[8] = system: 3aa uORF of the lmo0919 ribo-regulator; experiment: Ribosome profiling (Ribo-seq) of ribosome occupancy over the lmo0919 ribo-regulator uORF; assay type: cell-based; conditions: L. monocytogenes; brief exposure to lincomycin versus control
Experimental: (§6) FIG. 14 is a graph illustrating lincomycin-dependent ribosome stalling in the lmo0919 ribo-regulator.
(§7) To characterize the effects of lincomycin on the interaction between the ribo-regulator and the ribosome levels of ribosome occupancy over the ribo-regulator in control and lincomycin-treated bacteria were measured using ribosome profiling (Ribo-seq) (23, 42). Strikingly, an ˜5 fold increase in ribosome occupancy over the 3aa uORFs in both L. monocytogenes and L. innocua was measured following brief exposure to lincomycin (FIG. 14) (23).

[9] = system: 3aa uORF of the lmo0919 ribo-regulator homolog; experiment: as above; assay type: cell-based; conditions: L. innocua; brief exposure to lincomycin versus control
Experimental: as §6, §7

[10] = system: EF2720 regulatory element; experiment: Antibiotic-dependent transcriptional readthrough by term-seq and RNA-seq; assay type: cell-based, E. faecalis
Experimental: as §1, §4

lmo0919 regulator = experiment: Lincomycin-dependent induction of lmo0919 in ErmC-expressing strain; assay type: cell-based, L. monocytogenes expressing ErmC; conditions: ErmC-expressing bacteria, ribosomes resistant to lincomycin
Experimental: FIG. 11 illustrates that the lmo0919 regulator senses ribosome inhibition. L. monocytogenes carrying the ErmC antibiotic resistance gene was assayed for lincomycin dependent induction. In the L. monocytogenes ErmC-expressing strain, in which ribosome are made immune to lincomycin via methylation of A2058 in the 23S rRNA, the lmo0919 regulator is unresponsive to the presence of the antibiotic (red).
The structural alterations in the lmo0919 ribo-regulator could either be mediated by direct binding of the antibiotic to the ribo-regulator (i.e., a riboswitch), or by attenuation, where the lincomycin-inhibited ribosomes stall on a uORF in the ribo-regulator, thus shifting the ribo-regulator structure from a “closed” to an “open” state. To differentiate between direct binding and ribosome-mediated regulation, lincomycin-dependent induction of lmo0919 in L. monocytogenes expressing the ErmC 23S rRNA methyltransferase was measured. In these bacteria the ribosomes are di-methylated at position A2058 of the 23S rRNA, rendering the ribosomes resistant to lincomycin.

SMILES | Sublethal concentration (highest antibiotics concentration that did not cause growth-rate inhibition) (E. faecalis) [µg/mL] | Sublethal concentrations of antibiotics used in this study (E. faecalis) [µg/mL] | Sublethal concentration (highest antibiotics concentration that did not cause growth-rate inhibition) (L. monocytogenes) [µg/mL] | Sublethal concentrations of antibiotics used in this study (L. monocytogenes) [µg/mL] | Response of the lmo1652 regulatory element [1] | Sublethal concentration (highest antibiotics concentration that did not cause growth-rate inhibition) (B. subtilis) [µg/mL] | Sublethal concentrations of antibiotics used in this study (B. subtilis) [µg/mL] | MIC (L. monocytogenes Wt) [µg/mL] | MIC [2] [µg/mL] | Response of msrC promoter and termination-based regulator [3] | MIC [4] [µg/mL] | MIC [5] [µg/mL] | MIC [6] [µg/mL] | Activation of the lmo0919 5′UTR regulator (readthrough) [7] | Increase in sensitivity upon deletion of lmo0919 ([2]; Δlmo0919 versus wild type L. monocytogenes) [fold] | Increase in ribosome occupancy over the 3aa uORF [8] [fold] | Increase in ribosome occupancy over the 3aa uORF [9] [fold] | Response of the EF2720 regulatory element [10] | Responsiveness of the lmo0919 regulator (lmo0919 regulator)
O=C(N[C@H](CO)[C@H](O)c1ccc([N+](=O)[O-])cc1)C(Cl)Cl [Chloramphenicol] | 0.4 | 0.4 | 0.4 | 0.4 | responds | 0.2 | 0.2 | 2 (≈ 6.19 µM) | – | – | – | – | – | – | – | – | – | – | –
CC1(C)S[C@@H]2[C@H](NC(=O)[C@H](N)c3ccccc3)C(=O)N2[C@H]1C(=O)O [Ampicillin] | 2 | 2 | 1 | 1 | – | 0.0625 | 0.0625 | – | – | – | – | – | – | – | – | – | – | – | –
NC[C@H]1O[C@H](O[C@H]2[C@H](O)[C@@H](O[C@H]3O[C@H](CO)[C@@H](O)[C@H](N)[C@H]3O)[C@H](N)C[C@@H]2N)[C@H](O)[C@@H](O)[C@@H]1O [Kanamycin] | 16 | 16 | 0.5 | 0.5 | – | 0.5 | 0.5 | – | – | – | – | – | – | – | – | – | – | – | –
CC[C@H]1OC(=O)[C@H](C)[C@@H](O[C@H]2C[C@@](C)(OC)[C@@H](O)[C@H](C)O2)[C@H](C)[C@@H](O[C@@H]2O[C@H](C)C[C@H](N(C)C)[C@H]2O)[C@](C)(O)C[C@@H](C)C(=O)[C@H](C)[C@@H](O)[C@]1(C)O [Erythromycin] | 0.5 | 0.5 | 0.03125 | 0.03125 | responds | 0.01562 | 0.01562 | 0.0312 (≈ 0.0426 µM) | 0.0625 (≈ 0.0852 µM) | increase both the transcription initiation rate and readthrough into the gene | 0.0625 (≈ 0.0852 µM) | 0.0312 (≈ 0.0426 µM) | 0.0625 (≈ 0.0852 µM) | – | – | – | – | – | –
CCC[C@@H]1C[C@@H](C(=O)N[C@@H]([C@H]2O[C@H](SC)[C@H](O)[C@@H](O)[C@H]2O)[C@@H](C)O)N(C)C1 [Lincomycin] | 2 | 2 | 0.25 | 0.25 | responds | 0.5 | 0.5 | 1 (≈ 2.46 µM) | 0.25 (≈ 0.615 µM) | – | 0.25 (≈ 0.615 µM) | 8 (≈ 19.7 µM) | 0.25 (≈ 0.615 µM) | specific activation | 4 | ~5 | ~5 | respond | no longer responsive
CC[C@H](C)[C@H](N)C1=N[C@H](C(=O)N[C@@H](CC(C)C)C(=O)N[C@H](CCC(=O)O)C(=O)N[C@H](C(=O)N[C@H]2CCCCNC(=O)[C@H](CC(N)=O)NC(=O)[C@@H](CC(=O)O)NC(=O)[C@H](Cc3cnc[nH]3)NC(=O)[C@@H](Cc3ccccc3)NC(=O)[C@H]([C@@H](C)CC)NC(=O)[C@@H](CCCN)NC2=O)[C@@H](C)CC)CS1 [Bacitracin] ({Ileψ(thiazoline)Cys}-L[dE]IK[dOrn]I[dF]H[dD]N; lactam 4-C) | 1 | 1 | 8 | 8 | – | 0.125 | 0.125 | – | – | – | – | – | – | – | – | – | – | – | –
